Test results taken from patent US20180221435A1, “ITCH TREATMENT USING A COMBINATION OF NEUROKININ-1, GASTRIN RELEASING PEPTIDE, AND GLUTAMATE RECEPTOR ANTAGONISTS” (The Regents of the University of California, priority 2013, published 2018).
“Also recorded” adds a separate entry of the source.

Assays:
[1] = test system: superficial dorsal horn neurons; assay: In vivo single-unit recording, noxious pinch-evoked responses, spinal superfusion of antagonists; design: species or system mice; details: pinch at end of 1 min superfusion
Procedure: Akiyama T et al., The Journal of neuroscience: the official journal of the Society for Neuroscience 29(20):6691-6699 (2009)]. Anesthesia was induced by sodium pentobarbital (60 mg/kg ip) and maintained by supplemental injections (10-20 mg/kg/hr). […] A tungsten microelectrode recorded single-unit activity in the lumbar spinal cord. A chemical search strategy [Akiyama T et al., Journal of neurophysiology 102(4):2176-2183 2009; […] Units were classified as wide dynamic range (WDR)-type if they responded in a graded manner to innocuous mechanical stimulation (brushing, cotton wisp) and noxious pinch, or nociceptive-specific (NS) if they responded to noxious pinch (and to the 55 mN von Frey stimulus) but not to the cotton wisp or brush stimuli. […] Akiyama T et al., The Journal of neuroscience: the official journal of the Society for Neuroscience 29(20):6691-6699 (2009)]. […] At the end of the antagonist superfusion, the noxious pinch stimulus was delivered again at the same site on the receptive field. Thirty minutes later, the noxious pinch stimulus was delivered in the same manner. Action potentials were recorded to a computer and counted using Chart software (AD Instruments, Colorado Springs Colo.) and Spike2 software (CED Instruments). […]

[2] = test system: superficial dorsal horn neurons; assay: In vivo single-unit recording, id chloroquine-evoked firing, spinal superfusion of antagonists; design: species or system mice
Procedure: The single-unit recording from the lumbar spinal cord was conducted as previously detailed [Akiyama T et al., Journal of neurophysiology 102(4):2176-2183 (2009); Akiyama T et al., The Journal of neuroscience: the official journal of the Society for Neuroscience 29(20):6691-6699 (2009)]. Anesthesia was induced by sodium pentobarbital (60 mg/kg ip) and maintained by supplemental injections (10-20 mg/kg/hr). A gravity-driven perfusion system allowed artificial cerebrospinal fluid (Krebs: 117 mM NaCl, 3.6 mM KCl, 2.5 mM CaCl2, 1.2 mM MgCl2, 1.2 mM NaH2PO4, 25 mM NaHCO3 and 11 mM glucose which was equilibrated with 95% 02 and 5% CO2 at 37° C.) to be superfused continually over the exposed lumbosacral spinal cord [Akiyama T et al., PloS one 6(7):e22665 (2011)]. A tungsten microelectrode recorded single-unit activity in the lumbar spinal cord. A chemical search strategy [Akiyama T et al., Journal of neurophysiology 102(4):2176-2183 2009; Akiyama T et al., The Journal of neuroscience: the official journal of the Society for Neuroscience 29(20):6691-6699 (2009)] was used to identify and isolate chloroquine-responsive units. Our search strategy was intended to maximize the chance of isolating a chloroquine-responsive neuron; it was assumed that such neurons either gave rise to ascending projections, or served as interneurons in segmental scratch-reflex circuitry, and no attempt was presently made to distinguish between these possibilities.
Briefly, a small (˜0.25 μl) intradermal (id) microinjection of chloroquine (100 μg/μl) was made in the ventral hindpaw and a spontaneously active unit in the superficial lumbar dorsal horn (depth<300 um) was isolated. After the spontaneous activity had waned, chloroquine (1 μl, 100 μg/μl) was injected again at the same site through the same needle. […] Responses were usually recorded for at least 30 minutes, although in many cases unit firing declined over a shorter period.
Action potentials were recorded to a computer and counted using Chart software (AD Instruments, Colorado Springs Colo.) and Spike2 software (CED Instruments). Ongoing responses elicited by chloroquine, histamine, or AITC were averaged at 20-second intervals before, during and after the antagonist application, and compared by one way repeated-measures analysis of variance (ANOVA) followed by post-hoc Bonferroni test, with p<0.05 set as significant. The mean firing rate was calculated over a 20-second period 40 seconds after the antagonist application, and compared by one way ANOVA followed by post-hoc Bonferroni test, with p<0.05 set as significant. The criterion for decrease in ongoing firing was >70% decrease below the ongoing activity elicited by pruritogen over a 20-second period 40 seconds after the antagonist application. Mean peak responses elicited by noxious pinch were compared by one way repeated-measures ANOVA followed by post-hoc Bonferroni test, with p<0.05 set as significant. At the end of each experiment, an electrolytic lesion was made at the spinal cord recording site. The spinal cord was postfixed in 10% buffered formalin, cut in 50 μm frozen sections, and examined under the light microscope to identify lesions.

N#Cc1cc2[nH]c(=O)c(=O)[nH]c2cc1[N+](=O)[O-] [CNQX]
noxious pinch-evoked response, effect of spinal superfusion [1]: significantly reduced | chloroquine-evoked firing compared to vehicle superfusion ([2]; 40-60 s of superfusion, normalized firing, vs vehicle): significantly attenuated chloroquine-evoked firing | chloroquine-evoked firing in NS cells ([2]; NS units, vs vehicle): significantly reduced | chloroquine-evoked firing in WDR cells ([2]; WDR units, vs vehicle): significantly reduced | chloroquine-evoked firing, effect of spinal superfusion ([2]; relative to chloroquine-evoked response prior to spinal superfusion): significantly attenuated during and after spinal superfusion; also recorded: reduced
